Experimental data taken from US12516086B2 (SRI International, priority 2021, dated 2026).
Ends that are not written are not given here.

Legend:
[1] = molecular target: Recombinant human transferrin receptor (Homo sapiens, UniProt P02786); assay: ELISA binding to plate-absorbed transferrin receptor; details: receptor at 1 μg/mL, biotinylated peptide at varying concentrations, 1 h
Experimental: Recombinant human transferrin receptor was absorbed onto high binding ELISA plates at 1 μg/mL. […] Retained MTS peptide was detected using streptavidin-HRP and TMB reagent. The absorbance was measured at 450 nm and is proportional to the amount of MTS peptide captured by transferrin receptor. […] By comparison, MTS3_V1-2 and a scrambled control peptide of MTS2_V1-2 show no binding. The binding affinity of MTS2_V1-2 for transferrin receptor was determined by biolayer interferometry on a OctetRED 96 system. The biotinylated MTS2_V1-2 peptide was captured on streptavidin probe. The kon and koff rate were determined at various concentrations of human or mouse transferrin receptor allowing for determination of the dissociation constant.

[2] = test system: HMC3 cells (human microglia cell line); assay: Peptide uptake by quantitative flow cytometry in HMC3 cells; assay type: cell-based
Experimental: Under both cell states, an average of ˜60,000 molecules of MGS2_V4-2 were internalized. […] All cell lines were incubated with MGS2_V4-2 at 25 nM for 1 hour at 37° C.
Cells were incubated at the indicated concentration of each peptide construct that had been labeled with Alexa Fluor 647. After 1 h incubation at 37° C., uptake was determined by quantitative flow cytometry. […] Thus, uptake is mediated by the MGS not the MTS.
However, binding was rescued by using the tetrameric MGS2_V4-4 as the targeting peptide in this multifunctional chimera (shown in panel A).
(§1) Peptide concentration and incubation time as well as cell line used is indicated in each figure. […] Cells were removed by trypsinization. Flow cytometry was performed on a BD FACSCelesta, and data were analyzed using FlowJo_v10.8. Cells were gated based on the forward and side scatter to include only viable cells and a minimum of 10,000 events were counted. For absolute peptide uptake per cell, a standard curve was generated using Quantum™ Alexa Fluor 647 microspheres. MFI was determined at 50% at peak height. Molecules internalized per cell were determined by the standard curve relating MESF to MFI and divided by the number dye molecules/MGS conjugate. GraphPad Prism® was used for non-linear regression curve fitting to calculate an EC50.
HMC3 cells were activated with interferon-gamma (IFN-γ) (10 ng/ml, 24 h). Resting phenotype was characterized by expression of IBA1, and endotoxin receptor CD14, but negative for the astrocyte marker GFAP. […] In Vivo MTS and MTS-MGS Targeting Experiments

[3] = test system: HT-22 cells; assay: Receptor recycling: MGS_NOE3_V2-4 uptake with chloroquine or cycloheximide; assay type: cell-based, mouse; details: 100 nM MGS_NOE3_V2-4; 100 μM chloroquine or 250 μM cycloheximide; up to 24 h
Experimental: The cellular receptor for MGS_NOE3_V2-4 is recycled (FIG. 22). HT-22 cells were incubated with culture medium containing 100 nM MGS_NOE3_V2-4 in the presence of 100 μM chloroquine or 250 μM cycloheximide for the indicated times. The cellular uptake was analyzed by flow cytometry. […] New protein synthesis is not required for continued uptake of MGS_NOE3_V2-4. Endosomal acidification is required for continued uptake of MGS_NOE3_V2-4. MGS_NOE3_V2-4 uptake continues with time.
For experiments to determine if the cellular receptor is recycled, cells were treated with peptide in the presence of 100 μM chloroquine or 250 μM cycloheximide. At the indicated time points, the cells were washed and analyzed as described above.

[4] = test system: HT22 cells (mouse hippocampal neuronal cell line); assay: Peptide uptake by quantitative flow cytometry in HT22 cells; assay type: cell-based; details: for Uptake into HT22 cells versus concentration (in words): 1 h at 37° C.
Experimental: FIG. 26A. […] FIG. 26B. […] FIG. 26C.
(§2) It must be on the tetrameric core to function. […] The number of molecules of peptide internalized per cell was determined by a quantitative flow cytometry assay. […] MGS_NOE3_V1-4 and MGS_NOE3_V2-4 display a 5-6-fold specificity for neurons over astrocytes and 3-fold specificity compared to microglia. […] Incubations were performed for 1 h at 37° C. […] Uptake was determined by flow cytometry assay.
as §1

[5] = test system: HT22 and GT1/7 neuronal cell lines vs CTX TNA2 astrocytes and HMC3 microglia; assay: Uptake of MGS_NOE3 tetramers across cell lines by quantitative flow cytometry; assay type: cell-based, mouse, rat, human; details: 200 nM, 1 h
Experimental: as §2, §1

[6] = test system: HT22 cells; assay: Confocal live cell imaging of internalization into HT22 cells; details: 200 nM, 37° C., Alexa Fluor 647
Experimental: Cells were incubated with 200 nM, and the average uptake per cell was determined. […] Alexa Fluor 488 conjugated wheat germ agglutinin was used to label the cell membrane and Hoechst 33342 was used to stain the nucleus. Live cell imaging was performed, and representative images are shown.
AlexaFluor488 conjugated wheat germ agglutinin was used to label the cell membrane and Hoechst 33342 was used to stain the nucleus. Live cell imaging was performed, and representative images are shown.
The test cells were seeded in 35 mm confocal microscopy dish 24 hours prior to treatment. The test peptides labeled with Alexa Fluor 647 were incubated on cells in media for the indicated time at 37° C. After incubation, the cells were washed 3 times with PBS, 2 times with 0.1 M HCl-glycine pH 2.2 in 0.9% NaCl and 1 time with PBS. Alexa Fluor 488 conjugated wheat germ agglutinin was used to label the cell membrane and Hoechst 33342 was used to stain the nucleus. Microscopy was acquired on a Zeiss LSM 700 with a Pln Apo 63×/1.4 oil DIC III objective. Images were processed using Zen software.
For peptides that were biotinylated instead of direct labeling with Alexa Fluor 647, the peptide-SA-AF647 conjugate was prepared by mixing Alexa Fluor™ 647 conjugated streptavidin and biotinylated peptide with an equal molecular ratio in 100 μl PBS for 30 minutes at room temperature. […]

[7] = test system: brain cells; assay: Brain cell association after intrathecal injection, flow cytometry; assay type: in vivo, C57BL/6 mouse; details: Alexa Fluor 647 label, 1 hr circulation, compared to naïve animals
From the text: (A) Gating strategy for total brain cells vs debris. (B) Gating strategy excluding cell doublets. FIG. 24C indicates the fluorescent intensity of MGS_NOE3-V2-4 internalized into brain cells following intrathecal injection compared to naïve animals.
MGS_NOE3-V2-4 was labeled with Alexa Fluor 647 and injected intrathecally in a C57BL/6 mouse. After the peptide circulated for 1 hr, the animal was euthanized, and the brain tissue was harvested. The whole brain was subsequently dissociated using the Miltenyi Biotec gentleMACS Octo Dissociator. The number of MGS_NOE3_V2-4 molecules internalized into brain cells were analyzed by flow cytometry (BD FACSCelesta).
Alternatively, all CNS cells were analyzed as a mixture by dissociating the brain using the Miltenyi Biotec gentleMACS Octo Dissociator. No enrichment for a CNS subpopulation was performed and cells were directly analyzed by flow cytometry. Gating was used to eliminate cell debris and cell doublets.

[8] = rat, in vivo
Experimental: Coronal slices are 1 mm and arranged from the front (upper left) to back (lower right).
Coronal slices of 1 mm thickness are prepared using a brain matrix. The slices are imaged on an Odyssey Imager collecting fluorescent signal at 800 nm.

[9] = rat, in vivo; remark: listed apart in the source
Experimental: MTS variants labeled with the near infrared dye Alexa Fluor 750 were injected into the tail vein of Sprague Dawley rats at 1 μg MTS/kg rat body weight. At the indicated time, CSF was isolated via capillary puncture of the cisterna magna. […] To assure the fatty acid is not driving the transport into the CNS, a control peptide scMTS3_V2-2 which contains the MTS3 amino acid composition but with a scrambled sequence was lipidated.
The MTS peptide directly conjugated to Alexa Fluor 750 dye (1 μg/g body weight) is injected via lateral tail vein into a Sprague-Dawley Rat and allowed to circulate for the indicated time (20 min, 1 h 6 h, 24 h). The animal is anesthetized 10 mins prior to the end of the time point and 2 mL 200× Heparinized Saline is injected intraperitoneally. To collect the CSF, a blunt dissection of the back of the neck is performed to expose the clear dura mater covering the cisterna magna. Using a glass micropipette, CSF is aspirated from the cisterna magna at the indicated time point. Following CSF collection, a transcardial perfusion is performed by flushing with 500 mL ice cold 1× PBS containing heparin to remove any blood from the body. The brain and other tissues are isolated. The brain is homogenized using a Dounce homogenizer in lysis buffer (30 mM Tris-HCl, pH 8.0 0.05% Triton X-100) and the soluble fraction collected. […]

[10] = human serum (Innovative Research, H6430); details: 37° C., up to 24 hours
[11] = Serum stability (RP-HPLC of Alexa Fluor 647 labeled peptide); assay type: in vitro ADME; details: 37° C., 24 h
Experimental: MGS2_V4-2 labeled with Alex Fluor 647 was incubated in human serum at 37° C. At the indicated times, an aliquot was removed, serum proteins were precipitated, and the resultant supernatant was analyzed by reverse phase HPLC monitoring the absorbance at 650 nm. Chromatograms for each time point are shown. Intact peptide has a retention time at 11.864. […] Peaks were integrated to determine the percentage of intact peptide as well as the amount of observed degradation product. At 24 h, >75% of the MGS2_V4-2 is still intact. Electrospray mass spectrometry was performed on the peptide product arising at the 10.005 min retention time. The mass of this new species corresponds to the loss of the 3 amino acids on both branches of MGS2_V4-2.
The concentration of a solution of peptide conjugated with dye (Alexa Fluor 647) was determine by absorbance at 651 nm and ˜14 nmol of peptide was lyophilized. The lyophilized peptide powder was dissolved in 400 μL of human serum (Innovative Research, H6430) to achieve a 35 μM solution. The sample was incubated at 37° C. and shaken. For each time point (0, 1, 2, 4, 20 and 24 hours), a 50 μL aliquot was removed from the reaction and 100 μL of absolute ethanol was added to precipitate serum proteins. Samples were incubated on ice for 15 mins before being centrifuged at 12,000 rpm for 5 mins. […] Finally, 100 μL of each sample were analyzed by analysis RP-HPLC.

Recombinant human transferrin receptor, sequence (P02786 whole entry): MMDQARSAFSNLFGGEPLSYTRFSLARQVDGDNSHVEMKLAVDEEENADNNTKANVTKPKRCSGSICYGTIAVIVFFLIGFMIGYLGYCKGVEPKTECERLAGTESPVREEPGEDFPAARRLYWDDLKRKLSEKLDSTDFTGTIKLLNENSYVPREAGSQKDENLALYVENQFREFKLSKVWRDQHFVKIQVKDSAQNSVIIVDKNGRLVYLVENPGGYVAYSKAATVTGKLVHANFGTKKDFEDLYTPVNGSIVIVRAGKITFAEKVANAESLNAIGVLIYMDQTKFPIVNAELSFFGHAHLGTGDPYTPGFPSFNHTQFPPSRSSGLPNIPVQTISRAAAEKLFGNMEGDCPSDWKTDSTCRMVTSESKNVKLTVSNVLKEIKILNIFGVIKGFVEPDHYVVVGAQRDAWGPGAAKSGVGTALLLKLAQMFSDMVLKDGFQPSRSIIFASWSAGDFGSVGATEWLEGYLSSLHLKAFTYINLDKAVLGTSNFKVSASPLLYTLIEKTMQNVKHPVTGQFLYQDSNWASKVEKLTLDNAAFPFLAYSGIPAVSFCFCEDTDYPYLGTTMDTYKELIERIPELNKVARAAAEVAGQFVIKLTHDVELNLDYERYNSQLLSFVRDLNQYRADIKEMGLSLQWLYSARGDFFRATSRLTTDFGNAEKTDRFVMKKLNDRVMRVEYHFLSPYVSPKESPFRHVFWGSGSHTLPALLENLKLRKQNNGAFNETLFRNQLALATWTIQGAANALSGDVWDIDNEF

With “MTS3_V1-2 (Ac-SKETYSMNAQRQHERS; also: dimer)” the “Binding to transferrin receptor in ELISA (absorbance at 450 nm)” value [1] was “no binding” and the “Cellular uptake in HMC3 cells (in words)” value ([2]; 1 h at 37° C., quantitative flow cytometry) was “no significant cellular uptake at any of the concentrations tested”.
In the case of `CCN(CC)CCCC(C)Nc1ccnc2cc(Cl)ccc12` (stereo not shown) [chloroquine], the “Effect on MGS_NOE3_V2-4 uptake” value [3] is reported as “greatly reduces uptake”.
With “Ac-GFHNVYPYTWGGFSDIDLMADEI [MGS_NOE3_V2]” the “Uptake into HT22 cells versus concentration (in words)” value [4] was “no uptake was observed on HT22 cells”.
For “dimer version of MTS2_V1, Ac-FPSWTSKNQQWTNQRQ (also: dimer) [MTS2_V1-2]”, the “Binding to transferrin receptor in ELISA (absorbance at 450 nm)” value [1] was “binds to human transferrin in a concentration dependent manner which saturates at higher concentrations”.
With “MGS_NOE3_V1-4: tetrameric version of GFHNVYPYTWGGFSDIDLMADEI (SEQ ID NO:1) (also: tetrameric construct on a core linker)” the “Specificity for neurons compared to microglia” value [5] was 3 fold.
With “MGS_NOE3_V2-2 (Ac-GFHNVYPYTWGGFSDIDLMADEI; also: dimer)” the “Uptake into HT22 cells versus concentration (in words)” value [4] was “no uptake was observed on HT22 cells”.
For “MGS_NOE3_V2-4: tetrameric version of Ac-GFHNVYPYTWGGFSDIDLMADEI (SEQ ID NO:5) (also: tetrameric construct)”, the “Specificity for neurons compared to microglia” value [5] was 3 fold, the “Internalization into HT22 cells by confocal live cell imaging” value [6] was “internalized into neuronal cells” and the “Association with brain cells after intrathecal injection” value [7] was “associated with cells in the CNS after intrathecal injection”. The “Uptake into HT22 cells over time (in words)” value ([4]; 200 nM, 37° C.) was “increases over time”, the “Uptake into HT22 cells versus concentration (in words)” value [4] was “increases with increasing concentration” and the Intracellular concentration reached ([4]; uptake to at least 24 H) was “≈ 1 μM”.
With “MTS3_V2-2 (Ac-SKETYSMNAQRQHERS; also: dimer, C16 fatty acid)” the “Brain uptake by fluorescent imaging of 1 mm coronal slices” value [8] was “increased brain uptake compared to MTS3_V1-2 at all time points”, the “Transport into the brain parenchyma, fold higher than nonmodified MTS3_V1-2” value [9] was 10-12 fold and the “Transport into the brain parenchyma, fold higher than scrambled control scMTS3_V2-2” value [9] was 17-31 fold.
In the case of Ac-YAAWPASGAWT, the fragment found [10] is reported as “loss of the 3 amino acids on both branches of MGS2_V4-2, 1 h”.
With `C[C@@H]1C[C@@H]([C@H](O)CC2CC(=O)NC(=O)C2)C(=O)[C@@H](C)C1` [Cycloheximide] the “Effect on MGS_NOE3_V2-4 uptake” value [3] was “no impact on MGS_NOE3_V2-4 uptake”.
For “dimeric form of MGS2_V4, Ac-YAAWPASGAWT (SEQ ID NO:8) [MGS2_V4-2]”, the “Intact peptide in human serum” value [11] was > 75%, the “Uptake in HMC3 cells versus other CNS cell lines (specificity)” value ([2]; 25 nM, 1 hour at 37° C., versus neuronal cells, Schwann cell, astrocytes) was “significantly higher in HMC3 cells than other cells of the central nervous system” and the “Molecules internalized (average)” value ([2]; HMC3 cells of resting or activated phenotype, 1 hour) was ~60,000 molecules. It also gave an EC50 ([2]; HMC3 cells, 1 h at 37° C., read-out: EC50 (half maximal uptake)) of 7.3 nM.
